This is an account of results in patent publication US4000985A, “Azo dyes having a high solubility in petroleum fuels” (Morton-Norwich Products, Inc., priority 1975, dated 1977).

Common to all, as to format: physicochemical
Series [1] can be described thus: Storage solubility in xylene at 20°-25° C. and -10° C. On the procedure:
The solutions obtained were stored at 20°-25°C. and at -10° C. Where any separation of dye occurred, the dye content of the remaining solution was determined colorimetrically.

Series [2] can be described thus: Rate and extent of dissolution in No. 1 and No. 2 Heating Oils at 25° C. (colorimetric). The settings on record: for solubility in fuel oils (in words): No. 1 and No. 2 fuel oils; for dissolution in the heating oils: two minutes contact. As for the experimental part:
The solubility properties of each of the dyes of Examples 16-41 were evaluated in the fuels No. 1 and No. 2 Heating Oils, respectively. The procedure was as follows:
Where the dyes are solid dyes, excess of pulverized solid dye, far beyond that which would dissolve, i.e., 30 to 35% dye, was added to the respective oils at 25° C. and agitated at constant speed. Samples were removed at 1, 10 and 20 minute intervals, filtered, and the amount of dissolved dye determined colorimetrically.
The tarry non-solid dyes were charged in proportions of 50-60% dye to 50-40% oil rather than 30-35% used for the solid dyes. In fact, it was very difficult to stir the tarry dye-fuel oil mixture at a dye concentration of 50%. Samples for these dyes were taken after 2 minutes. The longer initial time for the tarry dyes was to permit reasonable contact between solvent and the viscous, condensed dye.

Series [3] is described as follows: Dissolution of 58% dye in 42% fuel by warming, cooling to 25° C. (six heating/diesel oils). To be noted: 58% by weight dye, warmed, cooled to 25° C. On the procedure:
No. 2 Regular Grade Diesel Oil
Each dye-fuel oil mixture was warmed with stirring and then cooled to 25° C.

A short description of series [4]: Physical state of the isolated dye. The settings on record: for Physical State of Dye: after isolation according to Procedure B. The text has this: alternatively, the crude liquid dye may be taken up with a volatile solvent and the solvent removed during the drying process to yield a non-volatile liquid colorant.
Series [5] is described as follows: Storage solubility in No. 1 and No. 2 Heating Oil at ambient temperature and -10° C. As for the experimental part: The resultant mixtures were stored at ambient temperatures (20° to 25° C.) and at -10° C. Where any separation of dye occurred, the dye content of the remaining solution was determined colorimetrically.
Series [6] can be described thus: General statements on solubility and dissolution rate in petroleum fuels.
The nature of series [7]: Dissolution of 58% dye in 42% fuel by warming, cooling to 25° C. (six heating/diesel oils).
The nature of series [8]: Equilibrium solubility of Solvent Red No. 19 in petroleum fuels (filtrate, colorimetric). As for the experimental part: Solvent Red No. 19 was subjected to the same solubility test as set forth in Example 14.
In each instance, the precipitated mass was filtered and the dye content of the filtrate was determined colorimetrically.

Where [9] appears, read: No. 1 Fuel Oil, 20 Minutes, 25° C., aminoazotoluene dyes (Table 6).
The mark [10] stands for this setting: No. 2 Fuel Oil, 20 Minutes, 25° C., aminoazotoluene dyes (Table 7).
Where [11] appears, read: No. 1 Heating Oil, 20° C.-25° C. (Table 8).
Where [12] appears, read: No. 1 Heating Oil, -10° C. (Table 8).
Where [13] appears, read: No. 2 Heating Oil, 20° C.-25° C. (Table 9).
Setting [14] is: No. 2 Heating Oil, -10° C. (Table 9).
Where [15] appears, read: No. 1 Fuel Oil, 20 Minutes, 25° C., aminoazobenzene dyes (Table 4).
Where [16] appears, read: No. 2 Fuel Oil, 20 Minutes, 25° C., aminoazobenzene dyes (Table 5).
Where [17] appears, read: No. 1 Fuel Oil, 1 Minute, 25° C., aminoazotoluene dyes (Table 6).
[18] abbreviates: No. 1 Fuel Oil, 10 Minutes, 25° C., aminoazotoluene dyes (Table 6).
Setting [19] is: No. 2 Fuel Oil, 1 Minute, 25° C., aminoazotoluene dyes (Table 7).
Setting [20] is: No. 2 Fuel Oil, 10 Minutes, 25° C., aminoazotoluene dyes (Table 7).
[21] abbreviates: No. 1 Heating Oil, 20° C.-25° C. (Table 10).
[22] abbreviates: No. 2 Heating Oil, 20° C.-25° C. (Table 11).
[23] abbreviates: No. 1 Heating Oil, -10° C. (Table 10).
The mark [24] stands for this setting: No. 2 Heating Oil, -10° C. (Table 11).

For `CCCCC(CC)CNc1ccc2ccccc2c1N=Nc1ccc(N=Nc2ccccc2C)cc1C` (stereo not drawn) [Example 1], the “Solubility (% by Wt.)” value in series [1] (20° C.-25° C. (Table 12)), in series [1] (-10° C. (Table 12)), in series [5] (setting [11]), in series [5] (setting [12]), in series [5] (setting [13]) and in series [5] (setting [14]) was “Complete” in each case. Also, the “Percent Dissolved” value came out at 58.0% in series [2] (setting [9]); 58.0% in series [2] (No. 1 Fuel Oil, 2 min, aminoazotoluene dyes (Table 6)); 55.3% in series [2] (setting [10]); 55.3% in series [2] (No. 2 Fuel Oil, 2 min, aminoazotoluene dyes (Table 7)). In series [2], the “solubility in fuel oils (in words)” value is “exceptionally high solubility”. For the same compound, in series [2], the “dissolution in the heating oils” value is “dissolved completely after two minutes contact”. For the same compound, the “behavior of dye-fuel oil mixture on cooling/storage” value (from here on “behavior … on cooling/storage”) in series [3] is “completely soluble and remained soluble at temperatures ranging from -10 °C to 25 °C”. The “Physical State of Dye at 20° C.” value in series [4] was “Liquid”. For the same compound, the “Physical State of Dye” value in series [4] (listed as 38) was “liquid dye”.
As for `CCCCC(CC)CNc1ccc2ccccc2c1N=Nc1ccc(N=Nc2ccccc2)cc1` (stereo not drawn) [Example 2], the “Solubility (% by Wt.)” value came to 25.5 % by Wt in series [1] (20° C.-25° C. (Table 12)), 10.35 % by Wt in series [1] (-10° C. (Table 12)), 4.4 % by Wt in series [5] (setting [11]) and 5.1 % by Wt in series [5] (setting [13]). The “Percent Dissolved” value in series [2] (No. 1 Fuel Oil, 1 Minute, 25° C., aminoazobenzene dyes (Table 4)) stood at 3.43%; in series [2] (No. 1 Fuel Oil, 10 Minutes, 25° C., aminoazobenzene dyes (Table 4)) it was 3.87%; in series [2] (setting [15]), 4.47%; in series [2] (No. 2 Fuel Oil, 1 Minute, 25° C., aminoazobenzene dyes (Table 5)) it was 4.63%; in series [2] (No. 2 Fuel Oil, 10 Minutes, 25° C., aminoazobenzene dyes (Table 5)) it was 4.90%; in series [2] (setting [16]) it was 5.13%. Moreover, the “behavior … on cooling/storage” value in series [3] was “precipitated as a solid mass almost immediately upon cooling to 25 °C”. Besides, in series [6] (aromatic solvents, diesel and heating oils), the “crystallization from oily solvents” value was “crystallizes from oily solvents, including aromatic solvents, and diesel and heating oils”. Besides, the “Physical State of Dye at 20° C.” value in series [4] is given as “Solid”. Further, in series [4], the “Physical State of Dye” value was “Solid”.
With `CCCCC(CC)CNc1ccc2ccccc2c1N=Nc1ccc(N=Nc2ccccc2)cc1C` (stereo not drawn) [Example 3], the “Solubility (% by Wt.)” value in series [1] (20° C.-25° C. (Table 12)), in series [1] (-10° C. (Table 12)), in series [5] (setting [11]), in series [5] (setting [12]), in series [5] (setting [13]) and in series [5] (setting [14]) was “Complete” in each case. Also, the “behavior … on cooling/storage” value in series [3] is “completely soluble and remained soluble at temperatures ranging from -10 °C to 25 °C”. Further, in series [4], the “Physical State of Dye at 20° C.” value is recorded as “Liquid”.
For `CCCCC(CC)CNc1ccc2ccccc2c1N=Nc1cc(C)c(N=Nc2ccccc2C)cc1C` (stereo not drawn) [Example 4], the “Solubility (% by Wt.)” value in series [1] (20° C.-25° C. (Table 12)) is on record as 50.0 % by Wt; in series [1] (-10° C. (Table 12)), 25.0 % by Wt; in series [5] (setting [11]) it was 44.8 % by Wt; in series [5] (setting [13]), 44.1 % by Wt. Besides, the equilibrium solubilities result in series [7] is reported as “exceeded 25 percent by weight”. Moreover, the “behavior … on cooling/storage” value in series [3] is recorded as “displayed some separation of dye upon lengthy storage”. Moreover, the “Physical State of Dye at 20° C.” value in series [4] is reported as “Liquid”.
In the case of `CCCCC(CC)COCCCNc1ccc2ccccc2c1N=Nc1ccc(N=Nc2ccccc2C)cc1C` (stereo not drawn) [Example 7], the “Solubility (% by Wt.)” value is listed as “Complete” in series [1] (20° C.-25° C. (Table 12)), 20.8 % by Wt in series [1] (-10° C. (Table 12)), 8.3 % by Wt in series [5] (setting [21]) and 7.7 % by Wt in series [5] (setting [22]). For the same compound, the “Percent Dissolved” value in series [2] (setting [17]) came out at 6.44%; in series [2] (setting [18]), 7.41%; in series [2] (setting [9]), 8.35%; in series [2] (setting [19]), 6.12%; in series [2] (setting [20]) it was 6.85%; in series [2] (setting [10]) it was 7.71%. The “behavior … on cooling/storage” value in series [3] was “precipitated as a solid mass almost immediately upon cooling to 25 °C”. Further, the “solubility in petroleum fuels (in words)” value in series [6] was “relatively low solubility in petroleum fuels”. Further, the “Physical State of Dye at 20° C.” value in series [4] was “Solid”. In series [4], the “Physical State of Dye” value is “Solid”.
Consider `CCCCC(CC)COCCCNc1ccc2ccccc2c1N=Nc1ccc(N=Nc2ccccc2)cc1` (stereo not drawn) [Example 8], for which the “Solubility (% by Wt.)” value in series [1] (20° C.-25° C. (Table 12)), in series [1] (-10° C. (Table 12)), in series [5] (setting [21]), in series [5] (setting [23]), in series [5] (setting [22]) and in series [5] (setting [24]) was “Complete” in each case. Also, the “Percent Dissolved” value in series [2] (setting [15]) came to 52.3%; in series [2] (No. 1 Fuel Oil, 2 min., aminoazobenzene dyes (Table 4)), 52.3%; in series [2] (setting [16]) it was 52.3%; in series [2] (No. 2 Fuel Oil, 2 min., aminoazobenzene dyes (Table 5)), 52.3%. Moreover, in series [2], the “solubility in fuel oils (in words)” value is given as “exceptionally high solubility”. In addition, the “dissolution in the heating oils” value in series [2] was “dissolved completely after two minutes contact”. The “behavior … on cooling/storage” value in series [3] was “completely soluble and remained soluble at temperatures ranging from -10 °C to 25 °C”. The “Physical State of Dye at 20° C.” value in series [4] is “Liquid”. In addition, in series [4] (listed as 27), the “Physical State of Dye” value is “liquid”.
For the compound `CCCCC(CC)COCCCNc1ccc2ccccc2c1N=Nc1ccc(N=Nc2ccccc2)cc1C` (stereo not drawn) [Example 9], the “Solubility (% by Wt.)” value in series [1] (20° C.-25° C. (Table 12)) is listed as “Complete”; in series [1] (-10° C. (Table 12)), 38.1 % by Wt; in series [5] (setting [21]) it was 26.6 % by Wt; in series [5] (setting [23]) it was 9.5 % by Wt; in series [5] (setting [22]), 28.8 % by Wt; in series [5] (setting [24]), 9.5 % by Wt. Further, the equilibrium solubilities result in series [7] was “exceeded 25 percent by weight”. In addition, the “behavior … on cooling/storage” value in series [3] is “displayed some separation of dye upon lengthy storage”. Besides, the “Physical State of Dye at 20° C.” value in series [4] is reported as “Tar”.
Take `CCCCC(CC)COCCCNc1ccc2ccccc2c1N=Nc1cc(C)c(N=Nc2ccccc2C)cc1C` (stereo not drawn) [Example 10]: the “Solubility (% by Wt.)” value worked out at 36.3 % by Wt in series [1] (20° C.-25° C. (Table 12)); 20.8 % by Wt in series [1] (-10° C. (Table 12)); 29.5 % by Wt in series [5] (setting [21]); 19.8 % by Wt in series [5] (setting [23]); 29.7 % by Wt in series [5] (setting [22]); 12.1 % by Wt in series [5] (setting [24]). Also, the equilibrium solubilities result in series [7] is on record as “exceeded 25 percent by weight”. In series [3], the “behavior … on cooling/storage” value is reported as “displayed some separation of dye upon lengthy storage”. The “Physical State of Dye at 20° C.” value in series [4] was “Tar”.
Regarding `CCCCCCCCCCCCNc1ccc2ccccc2c1N=Nc1ccc(N=Nc2ccccc2C)cc1C` [Example 41], the “Percent Dissolved” value is reported as 3.29% in series [2] (setting [17]); 4.04% in series [2] (setting [18]); 4.50% in series [2] (setting [9]); 4.48% in series [2] (setting [19]); 4.68% in series [2] (setting [20]); 5.21% in series [2] (setting [10]). In addition, the “Physical State of Dye” value in series [4] is reported as “Solid”.
On to `CCNc1ccc2ccccc2c1N=Nc1ccc(N=Nc2ccccc2)cc1` [Solvent Red No. 19], for which the “behavior … on cooling/storage” value in series [3] was “precipitation occurred immediately”. In addition, the “% by Weight Soluble (At Equilibrium)” value in series [8] (No. 1 Heating Oil) is listed as 2.23 % by Weight; in series [8] (No. 1 Premium Diesel) it was 1.89 % by Weight; in series [8] (No. 2 Heating Oil) it was 3.41 % by Weight; in series [8] (No. 2 Premium Diesel), 2.30 % by Weight; in series [8] (No. 2 Regular Diesel), 2.63 % by Weight; in series [8] (No. 4 Heating Oil), 5.76 % by Weight.
